The source of these data is US20060167006A1, “Method of treatment” (priority 2003, published 2006).

One assay deals with MIA PaCA-2 cells. In words: MTT cell growth assay, MIA PaCA-2 cells (Example 1). Format: cell-based. The settings on record: Homo sapiens, MIA PaCa-2, 72 h, Mia-Paca-2, 75 μM Compound I, read-out: Percent growth inhibition by comparison with control cell growth. From the text: Cell culture and proliferation assay: The following materials are purchased: FCS, RPMI and Dulbecco's modified Eagle medium (DMEM), trypsin-EDTA solution, penicillin-streptomycin solution from Biochrom K G (Berlin, Germany). All the other reagents are from Sigma Chemical Co. (St. Louis, Mo., USA). ASPC-1, MIA PaCA-2, human pancreatic cell lines are obtained from American Type Culture Collection (Rockville, Md.). Compound I is kindly provided by Novartis Pharma AG (Basel, Switzerland). T3M4 human pancreatic cell lines are a gift from Dr. R. S. Metzgar (Durham, N.C., USA). TAKA-1 immortalized Syrian golden hamster pancreatic ductal cells are a gift from Prof. P. Pour (University of Nebraska, Omaha, Nebr., USA). Human pancreatic cancer cell lines are routinely grown in DMEM (MIA-PaCA-2) or RPMI (ASPC-1, T3M4) supplemented with 10% FCS, 100 U/ml penicillin and 100 μg/ml streptomycin (complete medium).
TAKA-1 cells are grown in RPMI supplemented with 10% FCS, 100 U/ml penicillin and 100 μg/ml streptomycin. Cells are seeded overnight at a density of 5000 cells/well in 96-well plates and the proliferation assay is performed as described above. […] Cellular MTT is solubilized with acidic isopropanol and the optical density is measured at 570 nm using a plate reader (Dynatech MR 7000). […]
Statistical analysis: Results are expressed as mean±SD. […]
(Tetrazolium dyes change colour on reduction, which living cells bring about.)

Assay [1] relates to Mia-PaCa-2 cells. As to the kind of experiment: Propidium iodide staining of cell death, Mia-PaCa-2. The assay is classed as cell-based, human. The note with it: Mia-PaCa-2, Compound I at GI50, 1% FBS medium; control 10.7% ±2.5%. The source says: The resulting DNA histograms are interpreted using the Cell Quest Pro software (Becton Dickinson and Company, New York, USA).
The test system of assay [2] is Mia-PaCa-2 cells. In words: Growth factor-induced proliferation (MTT), Mia-PaCa-2. Format: cell-based, human. The note with it: Mia-PaCa-2, IGF-1 plus Compound I at GI50, 72 hours, MTT. Here is the method:
Cell culture and MTT assay: Human pancreatic cancer cell lines are routinely grown in DMEM (Colo-357 and Mia-PaCa-2) or RPMI (Aspc-1, BxPc-3, Capan-1, and T3M4) supplemented with 10% FBS, 100 U/ml penicillin, and 100 μg/ml streptomycin (complete medium). To assess cell proliferation, the MTT test is employed. […] After 48 or 72 hours of incubation, 3-(4,5-methylthiazol-2-yl)-2,5-diphenyl-tetrazolium bromide (MTT) is added (50 μg/well) for 4 hours. Formazan products are solubilized with acidic isopropanol, and the optical density is measured at 570 nm. […] All experiments are performed in triplicate.
EGF-induced proliferation of both Mia-PaCa-2 and T3M4 cell lines in a dose-dependent manner is seen with maximal effects of +72% ±7.5% (Mia-PaCa-2) and +52% ±23% (T3M4). […] FGF-2 markedly stimulates cell growth in Mia-PaCa-2 cell lines with maximal effects of +79% ±6%, and only slightly stimulated T3M4 cell lines, with maximal effects of +7% ±4%. […] Both cell lines are less sensitive to IGF-1 stimulation compared with EGF and FGF-2, with maximal effects of +24% ±2% in Mia-PaCa-2 and +17% ±4% in. T3M4.

For a further assay, the system named is MAPK. As to the kind of experiment: Western blot of MAPK phosphorylation in growth factor-conditioned cells. The settings on record: growth factor-conditioned Mia-PaCa-2 and T3M4 cells, Western blot. Format: cell-based, human. As to the method: (§1) Western blot analysis: Cell culture monolayers are washed twice with ice-cold PBS and lysed with buffer containing Tris-HCl (50 mM, pH 7.4), NP-40 (1%), Na-deoxycholate (0.25%), NaCl (150 mM), EDTA (1 mM), PMSF (1 mM), Na3VO4 (1 mM), NaF (1 mM) and one tablet of complete mini-EDTA-free protease inhibitor cocktail (in 10 ml buffer). Protein concentration is determined by the BCA protein assay (Pierce Chemical Co., Rockford, Ill., USA). 30 μg of cell lysates are separated on SDS-polyacrylamide gels and electroblotted onto nitrocellulose membranes. Membranes are then incubated in blocking solution (5% nonfat-milk in 20 mM Tris-HCl, 150 mM NaCl, 0.1% Tween-20) (TBS-T), followed by incubation with the indicated antibodies at 4° C. overnight. The membranes are then washed in TBS-T and incubated with HRPO-conjugated secondary antibodies for 1 hour at room temperature. Antibody detection is performed with an enhanced chemiluminescence reaction. Statistical analysis: Results are expressed as mean±SEM. For statistical analysis, the Student's t-test is used. Significance is defined as p<0.05.
On the technique in general: In western blotting, separated proteins are transferred to a membrane and probed.

For a further assay, the target named is T1, EGFR (Homo sapiens, UniProt P00533).
T1 construct: endogenous in cells; host or cells: Mia-PaCa-2 and T3M4 pancreatic cancer cells
As to the kind of experiment: Western blot of EGFR phosphorylation in growth factor-conditioned cells. Format: cell-based. The note with it: growth factor-conditioned Mia-PaCa-2 and T3M4 cells. As to the method:
as §1

Assay [3] concerns Lung cancer (A549 cell line). The settings on record: other reported cancer cells, read-out: GI50 concentration; cited from earlier work.
In assay [4] the test system is six tested pancreatic cancer cell lines. In words: GI50 by MTT assay, span over all six pancreatic cancer cell lines. The assay is classed as cell-based. The settings on record: Homo sapiens, read-out: GI50 concentration, range over cell lines. From the text:
(§2) Material and Methods: RPMI-1640 DMEM, trypsin-EDTA, and penicillin-streptomycin are purchased from Invitrogen (Karlsruhe, Germany); FBS from PAN Biotech (Aidenbach, Germany); human recombinant PDGF, IGF-1 and FGF-2 from R&D Systems (Abingdon, United Kingdom), and EGF from Upstate Biotechnology (Hamburg, Germany). Phospho-PDGFR-beta (tyr857) and P-EGFR (tyr1173) polyclonal antibodies are purchased from Santa Cruz Biotechnology, Inc. (Santa Cruz, Calif., USA). Phospho-p44/42 MAPK (Thr202/Tyr204) antibodies are purchased from Cell Signaling Technology (Frankfurt, Germany), anti-rabbit IgG HRPO-linked antibodies and ECL immunoblotting detection reagents from Amersham Biosciences (Amersham Life Science, Amersham, UK), and anti-goat IgG-HPRO peroxidase linked antibodies from Santa Cruz Biotechnology, Inc. (Santa Cruz, Calif., USA). Complete mini-EDTA-free protease inhibitor cocktail tablets and Annexin-V-Fluos are purchased from Roche GmbH (Mannheim, Germany). All other reagents are from Sigma Chemical Company (Taufkirchen, Germany).
(§3) Cell culture and MTT assay: Human pancreatic cancer cell lines are routinely grown in DMEM (Colo-357 and Mia-PaCa-2) or RPMI (Aspc-1, BxPc-3, Capan-1, and T3M4) supplemented with 10% FBS, 100 U/ml penicillin, and 100 μg/ml streptomycin (complete medium). […] Formazan products are solubilized with acidic isopropanol, and the optical density is measured at 570 nm. […]

The test system of another assay is BxPc-3 cells. In words: GI50 by MTT assay, BxPc-3 (Example 2). The note with it: Homo sapiens, BxPc-3, complete medium (10% FBS), 48 h, read-out: GI50 concentration. The assay is classed as cell-based.
Excerpt: as §2, §3

The structures appear in SMILES notation. Read-outs that look alike come from different tables or passages of the source.

T1 sequence (P00533 25-1210): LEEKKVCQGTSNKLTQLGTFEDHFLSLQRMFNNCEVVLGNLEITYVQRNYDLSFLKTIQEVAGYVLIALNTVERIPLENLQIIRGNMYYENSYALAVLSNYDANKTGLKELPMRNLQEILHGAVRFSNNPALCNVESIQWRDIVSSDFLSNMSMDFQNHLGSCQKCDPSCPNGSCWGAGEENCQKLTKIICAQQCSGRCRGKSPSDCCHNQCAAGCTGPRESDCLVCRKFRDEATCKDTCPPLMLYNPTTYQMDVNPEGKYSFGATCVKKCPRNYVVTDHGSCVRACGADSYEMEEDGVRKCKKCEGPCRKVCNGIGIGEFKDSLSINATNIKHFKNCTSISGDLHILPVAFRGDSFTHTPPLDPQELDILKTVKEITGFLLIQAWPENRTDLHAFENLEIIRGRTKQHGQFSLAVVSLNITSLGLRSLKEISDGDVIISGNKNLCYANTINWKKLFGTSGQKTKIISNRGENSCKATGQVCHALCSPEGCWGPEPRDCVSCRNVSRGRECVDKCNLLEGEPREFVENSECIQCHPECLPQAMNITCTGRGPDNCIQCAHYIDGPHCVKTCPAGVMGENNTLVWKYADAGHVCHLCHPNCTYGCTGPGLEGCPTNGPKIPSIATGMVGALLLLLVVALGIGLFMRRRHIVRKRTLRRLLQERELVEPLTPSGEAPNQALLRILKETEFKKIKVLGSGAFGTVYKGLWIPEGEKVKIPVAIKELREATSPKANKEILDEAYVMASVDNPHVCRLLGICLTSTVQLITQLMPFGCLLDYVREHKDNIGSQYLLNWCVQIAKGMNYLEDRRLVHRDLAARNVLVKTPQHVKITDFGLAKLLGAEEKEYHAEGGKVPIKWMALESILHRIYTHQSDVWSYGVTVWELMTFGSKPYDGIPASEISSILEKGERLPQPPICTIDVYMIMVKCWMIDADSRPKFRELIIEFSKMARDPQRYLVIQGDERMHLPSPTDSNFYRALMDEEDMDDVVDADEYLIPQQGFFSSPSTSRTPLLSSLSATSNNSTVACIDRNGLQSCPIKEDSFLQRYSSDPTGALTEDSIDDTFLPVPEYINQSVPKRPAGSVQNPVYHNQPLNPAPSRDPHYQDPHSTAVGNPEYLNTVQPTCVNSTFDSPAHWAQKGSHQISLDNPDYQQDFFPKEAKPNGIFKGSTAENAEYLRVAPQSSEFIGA

`Cc1ccc(NC(=O)c2ccc(CN3CCN(C)CC3)cc2)cc1Nc1nccc(-c2cccnc2)n1` [Compound I]: the inhibition at 75 µM in the assay on MIA PaCA-2 cells stood at 86.6%. Moreover, the “Cell death by propidium iodide staining” value with Mia-PaCa-2 cells [1] came to 33.7±16.5%. For the same compound, the “Inhibitory effect on IGF-1-induced proliferation” value with Mia-PaCa-2 cells [2] was “no significant inhibitory effects”. In addition, the “Inhibition of MAPK activation” value in the assay on MAPK is given as “does not inhibit activation”. For the same compound, the “Inhibition of EGFR activation” value at EGFR is recorded as “does not inhibit activation”. For the same compound, the GI50 is 2 to 3 µM in assay [3]; 17 to 31.5 µM in assay [4] (all six pancreatic cancer cell lines, 10% FBS/FCS medium); 9 to 20 µM in assay [4] (pancreatic cancer cell lines, low serum conditions (1% FCS)); 21 µM with BxPc-3 cells.

A word on the inhibition: it is the relative decrease from the control value, in per cent.
